Assay results taken from patent US8680094B2, “1, 4-benzoxazine compounds and derivatives thereof as therapeutic drugs for the treatment of neurodegenerative conditions” (Board of Regents, The University of Texas System, priority 2008, dated 2014).

Tests used:
CDK5/p25 = CDK5/p25 (Homo sapiens, UniProt Q00535); assay: In vitro kinase activity; type: biochemical; settings: percentage of control assays without compound, mean of duplicate
Experimental: (§1) To better understand the mechanism of action of the compounds of the present invention, but in no way a limitation; the effects of HSB-13 and ASK-2a on 20 different kinases were examined in vitro. At 500 nM concentration, ASK-2a inhibited the kinase activities of GSK3α, GSK3β, p38α, p38β, JNK3, MLK3, and B-Raf substantially. […] As described above, ASK-2a protects cerebellar granule neurons against LK-induced death but is ineffective against HCA-induced toxicity of HT-22 cells. In contrast, HSB-13 is protective in both paradigms. […] Previous studies have established that CDK inhibitors can protect neurons against a number of different apoptotic stimuli.
(§2) The activity of each kinase was measured in vitro in the presence either 100 nM or 500 nM ASK-2a. Kinase activity is expressed as a percentage of that in control assays (without ASK-2a). The values are mean of assays performed in duplicate. Substantial inhibition of kinase activity (>20%) is in bold type.
(§3) Table 3: Effect of HSB-13 at 500 nM on 20 different kinases measured in vitro. Kinase activity is expressed as a percentage of that in control assays (without HSB-13). The values are mean of assays performed in duplicate. Substantial inhibition of kinase activity (>20%) is in bold type.

CDK4/Cyclin D1 = CDK4/Cyclin D1 (Homo sapiens, UniProt P11802); assay: In vitro kinase activity; type: biochemical; settings: percentage of control assays without compound, mean of duplicate
Experimental: as §1, §2, §3

CDK1/Cylcin A1 = CDK1/Cylcin A1 (Homo sapiens, UniProt P06493); assay: In vitro kinase activity; type: biochemical; settings: percentage of control assays without compound, mean of duplicate
Experimental: as §1, §2, §3

p38β = p38β (Homo sapiens, UniProt Q15759); assay: In vitro kinase activity; type: biochemical; settings: percentage of control assays without compound, mean of duplicate
p38β, sequence (Q15759 whole entry): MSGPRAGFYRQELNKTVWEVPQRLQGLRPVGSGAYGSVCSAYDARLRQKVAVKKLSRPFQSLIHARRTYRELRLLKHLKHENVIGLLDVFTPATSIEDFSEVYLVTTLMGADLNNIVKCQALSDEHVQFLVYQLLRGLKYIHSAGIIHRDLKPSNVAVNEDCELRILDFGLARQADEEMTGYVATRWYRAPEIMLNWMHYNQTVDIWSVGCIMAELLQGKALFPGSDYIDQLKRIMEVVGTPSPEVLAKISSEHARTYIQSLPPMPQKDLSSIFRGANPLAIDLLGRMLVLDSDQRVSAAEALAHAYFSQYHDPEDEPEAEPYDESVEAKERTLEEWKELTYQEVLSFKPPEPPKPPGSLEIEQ
Experimental: as §1, §2, §3

p38α = p38α (Homo sapiens, UniProt Q16539); assay: In vitro kinase activity; type: biochemical; settings: percentage of control assays without compound, mean of duplicate
p38α, sequence (Q16539 whole entry): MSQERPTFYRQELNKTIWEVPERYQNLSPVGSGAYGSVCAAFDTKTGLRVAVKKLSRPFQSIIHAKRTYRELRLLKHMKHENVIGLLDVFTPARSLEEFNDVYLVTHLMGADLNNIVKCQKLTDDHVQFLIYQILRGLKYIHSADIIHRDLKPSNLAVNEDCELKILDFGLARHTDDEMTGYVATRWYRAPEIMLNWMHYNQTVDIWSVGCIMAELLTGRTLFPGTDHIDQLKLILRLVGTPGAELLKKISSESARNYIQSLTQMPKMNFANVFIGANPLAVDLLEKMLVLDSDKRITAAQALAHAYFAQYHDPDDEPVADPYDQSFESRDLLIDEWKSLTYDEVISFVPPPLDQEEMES
Experimental: as §1, §2, §3

CDK6/Cyclin D3 = CDK6/Cyclin D3 (Homo sapiens, UniProt Q00534); assay: In vitro kinase activity; type: biochemical; settings: percentage of control assays without compound, mean of duplicate
CDK6/Cyclin D3, sequence (Q00534 whole entry, species assumed): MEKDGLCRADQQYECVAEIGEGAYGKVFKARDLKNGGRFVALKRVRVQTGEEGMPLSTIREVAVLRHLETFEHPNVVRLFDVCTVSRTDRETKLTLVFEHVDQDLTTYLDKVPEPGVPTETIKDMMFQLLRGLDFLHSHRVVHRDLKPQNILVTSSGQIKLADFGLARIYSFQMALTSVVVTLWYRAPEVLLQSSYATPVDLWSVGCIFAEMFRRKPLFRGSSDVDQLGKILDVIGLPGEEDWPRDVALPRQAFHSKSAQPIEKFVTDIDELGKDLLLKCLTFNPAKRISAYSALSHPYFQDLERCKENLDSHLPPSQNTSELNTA
CDK6/Cyclin D3, sequence (P30281 whole entry partner, species assumed): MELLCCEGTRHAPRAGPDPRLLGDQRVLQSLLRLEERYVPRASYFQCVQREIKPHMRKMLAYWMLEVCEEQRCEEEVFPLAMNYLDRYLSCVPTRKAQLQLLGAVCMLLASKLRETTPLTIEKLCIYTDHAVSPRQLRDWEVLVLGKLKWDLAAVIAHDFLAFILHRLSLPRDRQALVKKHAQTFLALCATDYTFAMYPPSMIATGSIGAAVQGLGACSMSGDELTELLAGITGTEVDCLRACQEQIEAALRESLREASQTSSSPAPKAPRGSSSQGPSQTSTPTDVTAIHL
Experimental: as §1, §2, §3

LRRK2 = LRRK2 (Homo sapiens, UniProt Q5S007); assay: In vitro kinase activity; type: biochemical; settings: percentage of control assays without compound, mean of duplicate
Experimental: as §1, §2, §3

ROCK1 = ROCK1 (Homo sapiens, UniProt Q13464); assay: In vitro kinase activity; type: biochemical; settings: percentage of control assays without compound, mean of duplicate
ROCK1, sequence (Q13464 whole entry, species assumed): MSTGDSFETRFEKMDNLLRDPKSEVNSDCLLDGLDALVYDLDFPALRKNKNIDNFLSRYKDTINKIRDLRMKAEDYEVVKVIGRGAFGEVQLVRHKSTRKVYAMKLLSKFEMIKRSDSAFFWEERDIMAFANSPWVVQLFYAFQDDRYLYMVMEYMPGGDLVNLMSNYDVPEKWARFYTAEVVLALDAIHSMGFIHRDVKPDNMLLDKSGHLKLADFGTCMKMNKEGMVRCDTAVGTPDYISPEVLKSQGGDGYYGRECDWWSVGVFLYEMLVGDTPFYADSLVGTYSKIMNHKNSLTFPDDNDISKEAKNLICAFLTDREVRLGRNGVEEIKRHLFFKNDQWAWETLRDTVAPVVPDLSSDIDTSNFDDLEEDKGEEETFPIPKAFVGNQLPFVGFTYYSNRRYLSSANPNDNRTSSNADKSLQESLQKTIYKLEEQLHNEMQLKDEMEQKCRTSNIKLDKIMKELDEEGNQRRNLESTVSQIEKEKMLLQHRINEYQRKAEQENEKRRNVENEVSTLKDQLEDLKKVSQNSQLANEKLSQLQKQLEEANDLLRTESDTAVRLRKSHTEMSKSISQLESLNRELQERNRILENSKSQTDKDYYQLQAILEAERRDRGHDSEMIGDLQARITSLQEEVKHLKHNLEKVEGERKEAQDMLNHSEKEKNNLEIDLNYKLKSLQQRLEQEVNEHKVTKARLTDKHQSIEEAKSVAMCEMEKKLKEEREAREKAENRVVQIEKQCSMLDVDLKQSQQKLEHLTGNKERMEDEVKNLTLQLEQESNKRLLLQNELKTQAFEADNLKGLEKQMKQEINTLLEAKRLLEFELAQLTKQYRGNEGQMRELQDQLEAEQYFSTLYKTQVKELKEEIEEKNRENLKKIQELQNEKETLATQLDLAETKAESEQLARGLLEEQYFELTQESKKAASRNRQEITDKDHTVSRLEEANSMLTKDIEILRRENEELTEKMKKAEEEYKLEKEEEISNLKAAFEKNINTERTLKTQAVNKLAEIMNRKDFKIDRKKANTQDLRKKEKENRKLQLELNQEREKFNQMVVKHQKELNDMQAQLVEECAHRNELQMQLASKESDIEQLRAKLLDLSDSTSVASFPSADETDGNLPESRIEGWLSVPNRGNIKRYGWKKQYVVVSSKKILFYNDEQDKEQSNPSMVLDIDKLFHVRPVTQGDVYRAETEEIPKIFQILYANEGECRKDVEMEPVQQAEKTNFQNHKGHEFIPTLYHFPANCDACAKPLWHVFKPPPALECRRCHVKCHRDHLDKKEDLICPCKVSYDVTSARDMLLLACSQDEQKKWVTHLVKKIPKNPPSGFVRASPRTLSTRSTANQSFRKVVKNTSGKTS
Experimental: as §1, §2, §3

MEKK1 = MEKK1 (Homo sapiens, UniProt Q13233); assay: In vitro kinase activity; type: biochemical; settings: percentage of control assays without compound, mean of duplicate
MEKK1, sequence (Q13233 whole entry, species assumed): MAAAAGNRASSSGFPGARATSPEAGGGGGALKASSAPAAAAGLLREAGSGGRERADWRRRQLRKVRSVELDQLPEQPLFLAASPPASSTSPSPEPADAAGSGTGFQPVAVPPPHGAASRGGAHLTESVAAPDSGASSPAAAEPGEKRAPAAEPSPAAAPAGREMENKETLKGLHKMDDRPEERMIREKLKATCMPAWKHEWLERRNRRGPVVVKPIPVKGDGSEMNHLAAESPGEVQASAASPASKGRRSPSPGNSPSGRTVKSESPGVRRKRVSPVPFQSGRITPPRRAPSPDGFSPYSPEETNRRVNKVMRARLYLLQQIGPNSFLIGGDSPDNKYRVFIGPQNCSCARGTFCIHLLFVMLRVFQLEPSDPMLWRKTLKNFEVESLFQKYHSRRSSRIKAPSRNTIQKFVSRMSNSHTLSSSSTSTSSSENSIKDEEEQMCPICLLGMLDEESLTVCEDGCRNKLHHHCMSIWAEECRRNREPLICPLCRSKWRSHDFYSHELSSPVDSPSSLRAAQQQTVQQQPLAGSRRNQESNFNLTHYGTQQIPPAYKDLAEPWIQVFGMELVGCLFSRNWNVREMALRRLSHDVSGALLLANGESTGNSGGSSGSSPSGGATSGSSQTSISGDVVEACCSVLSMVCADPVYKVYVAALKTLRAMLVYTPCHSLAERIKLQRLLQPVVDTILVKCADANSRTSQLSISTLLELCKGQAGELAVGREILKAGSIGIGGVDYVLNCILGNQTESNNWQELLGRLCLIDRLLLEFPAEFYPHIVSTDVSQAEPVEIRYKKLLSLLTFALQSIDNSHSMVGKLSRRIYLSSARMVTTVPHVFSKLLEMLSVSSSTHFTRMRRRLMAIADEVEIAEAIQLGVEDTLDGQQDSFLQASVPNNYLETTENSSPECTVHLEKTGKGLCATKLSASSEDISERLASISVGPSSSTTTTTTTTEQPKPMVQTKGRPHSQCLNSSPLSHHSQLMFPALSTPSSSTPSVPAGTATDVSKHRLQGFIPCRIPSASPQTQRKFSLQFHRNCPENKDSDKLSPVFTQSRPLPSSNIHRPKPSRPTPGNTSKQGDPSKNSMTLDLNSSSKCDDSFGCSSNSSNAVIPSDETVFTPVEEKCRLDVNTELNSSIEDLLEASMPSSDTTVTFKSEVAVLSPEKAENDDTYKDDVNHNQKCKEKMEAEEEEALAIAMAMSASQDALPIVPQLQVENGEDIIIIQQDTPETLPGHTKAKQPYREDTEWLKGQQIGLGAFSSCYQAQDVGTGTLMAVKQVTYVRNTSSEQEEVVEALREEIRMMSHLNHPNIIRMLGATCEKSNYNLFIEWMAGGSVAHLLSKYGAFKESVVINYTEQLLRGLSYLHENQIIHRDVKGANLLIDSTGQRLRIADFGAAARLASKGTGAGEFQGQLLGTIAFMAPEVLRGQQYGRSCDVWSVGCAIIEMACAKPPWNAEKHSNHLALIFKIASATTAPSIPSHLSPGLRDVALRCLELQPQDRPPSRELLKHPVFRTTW
Experimental: as §1, §2, §3

JNK2 = JNK2 (Homo sapiens, UniProt P45984); assay: In vitro kinase activity; type: biochemical; settings: percentage of control assays without compound, mean of duplicate
JNK2, sequence (P45984 whole entry, species assumed): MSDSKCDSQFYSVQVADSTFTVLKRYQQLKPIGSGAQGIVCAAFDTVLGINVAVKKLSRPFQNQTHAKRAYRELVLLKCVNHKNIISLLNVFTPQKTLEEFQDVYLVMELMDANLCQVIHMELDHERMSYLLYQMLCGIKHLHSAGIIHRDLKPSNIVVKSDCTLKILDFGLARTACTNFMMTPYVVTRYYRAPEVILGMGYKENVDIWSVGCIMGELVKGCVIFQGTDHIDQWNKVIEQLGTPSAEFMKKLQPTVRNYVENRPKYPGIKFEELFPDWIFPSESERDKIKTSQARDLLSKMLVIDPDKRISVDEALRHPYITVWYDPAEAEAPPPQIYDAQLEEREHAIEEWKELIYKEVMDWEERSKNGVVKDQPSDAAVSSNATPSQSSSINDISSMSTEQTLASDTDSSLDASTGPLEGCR
Experimental: as §1, §2, §3

CDK2/Cyclin A1 = CDK2/Cyclin A1 (Homo sapiens, UniProt P24941); assay: In vitro kinase activity; type: biochemical; settings: percentage of control assays without compound, mean of duplicate
Experimental: as §1, §2, §3

phospho-Akt (Ser473) = assay: Western blot of signaling proteins in LK-treated cerebellar granule neurons: phospho-Akt (Ser473); type: cell-based, rat; settings: LK medium with compound
Experimental: Cultures of cerebellar granule neurons were switched to HK medium, LK medium, or LK medium containing of HSB-13, HSB-22, or ASK-2a for 3 h. Total cell lysates were prepared and analyzed by Western blotting using antibodies against phospho-Akt (Ser473), phospho-MEK, phospho-ERK, and phospho-GSK3β.
The culture medium was removed and the cells were washed twice with ice-cold phosphate-buffered saline (PBS) and lysed in lysis buffer [1% Triton, 20 mM Tris-HCl (pH 7.5), 150 mM NaCl, 1 mM Na2EDTA, 1 mM EGTA, 2.5 mM sodium pyrophosphate, 1 mM beta-glycerophosphate, 1 mM Na3VO4, 1 μg/mL leupeptin and 1 protease inhibitor mixture]. Protein concentrations were measured and normalized using Bradford protein assay reagent (Bio-Rad, Hercules, Calif., USA). Following normalization, 40 μg of protein was subjected to Western blotting. Immunoreactivity was examined by enhanced chemiluminescence (Amersham Bioscience, Piscataway, N.J., USA).
Activation of MEK, ERK and Akt requires their phosphorylation, which can be detected using phospho-specific antibodies. As previously reported by the inventors and others (Chin et al., 2004; Johnson et al., 2005; Majdzadeh et al., 2008), MEK and ERK phosphorylation decreases following LK treatment of cerebellar granule neurons. This decrease is not prevented by HSB-13, HSB-22, or ASK-2a (FIG. 4). […] This is also not affected by treatment with ASK-2a or HSB-22 (FIG. 4).

[1] = 100 nM, listed as ASK2a, 0.1 µM

Structure (SMILES) | % ACTIVITY (CDK5/p25; 100 nM) [%] | % ACTIVITY (CDK4/Cyclin D1; 100 nM) [%] | % ACTIVITY (CDK4/Cyclin D1; 500 nM) [%] | % ACTIVITY (CDK1/Cylcin A1; 100 nM) [%] | % ACTIVITY (CDK6/Cyclin D3; 100 nM) [%] | % ACTIVITY (CDK6/Cyclin D3; 500 nM) [%] | % ACTIVITY (LRRK2; 100 nM) [%] | % ACTIVITY (LRRK2; 500 nM) [%] | % ACTIVITY (ROCK1; 100 nM) [%] | % ACTIVITY (MEKK1; 100 nM) [%] | % ACTIVITY (MEKK1; 500 nM) [%] | % ACTIVITY (JNK2; 100 nM) [%] | % ACTIVITY (CDK2/Cyclin A1; 100 nM) [%] | phosphorylation of Akt at Ser473 in LK (phospho-Akt (Ser473)) | other results
O=C1Nc2ccccc2OC1=Cc1cc(Br)c(O)c(Br)c1 [ASK-2a] | 100 | 93 | 97 | 101 | 104 | 99 | 96 | 94 | 96 | 100 | 98 | 95 | 104 | not affected | % ACTIVITY (CDK5/p25; 500 nM): 96%; % ACTIVITY (CDK1/Cylcin A1; 500 nM): 88%; % ACTIVITY (p38β; 100 nM, 0.1 µM): 33%; % ACTIVITY (p38β; [1]): inhibited efficiently; % ACTIVITY (p38α; 100 nM, 0.1 µM): 76%; % ACTIVITY (p38α; [1]): inhibited efficiently; % ACTIVITY (ROCK1; 500 nM): 98%; % ACTIVITY (JNK2; 500 nM): 93%; % ACTIVITY (CDK2/Cyclin A1; 500 nM): 100%
Nc1ccc2c(c1)NC(=O)/C(=C/c1cc(Br)c(O)c(Br)c1)O2 [HSB-13, (Z)-6-amino-2-(3,′5′-dibromo-4′-hydrozybenzylidene)-2H-benzo[b][1,4]oxazin-3(4H)-one] | 84 | 103 | 88 | 95 | 99 | 89 | 97 | 88 | 91 | 99 | 98 | 98 | 82 | inhibits Akt (Ser473) phosphorylation even more than that seen in LK | % ACTIVITY (p38β; 500 nM): 10%; % ACTIVITY (p38α; 100 nM): 88%; % ACTIVITY (p38α; 500 nM): 43%
O=C1Nc2cc(Cl)ccc2O/C1=C\c1cc(Br)c(O)c(Br)c1 [HSB-22] |  |  |  |  |  |  |  |  |  |  |  |  |  | not affected | 
